Source: patent US20080103127A1, “METHODS FOR TREATING DISRUPTIVE BEHAVIOR DISORDERS” (priority 2006, published 2008)
Marks after values point to notes of the source that are not given here.

Assays:
submissive rats = assay: Reduction of Submissive Behavior Model (RSBM) of depression, dominant-submissive rat food competition test; type: in vivo, Sprague-Dawley rats
Description: (§1) In this study, the effects of COMPOUND #7 on dominant or submissive behavior in pairs of rats competing for food are examined. It has been shown that anti-manic drugs, including anticonvulsants, decrease dominance and antidepressant drugs reduce submissiveness. This model uses dominant behavior as a model of mania and submissive behavior as a model of depression. The dominance and submissiveness is defined in a competition test and measured as the relative success of two food-restricted rats to gain access to a feeder. Rats are randomly paired and placed in an apparatus allowing them to compete for a food reward. The dominant-submissive relationship develops over a 2-week period. The submissive or dominant animals in pairs selected after 2 weeks of training were treated orally […] (b.i.d.) with COMPOUND #7 at 3 or 30 mg/kg for 5 weeks. The partner of the drug-treated animal was treated with vehicle.
(§2) The objective of this study was to determine if COMPOUND #7 is active in the Reduction of Submissive Behavior Model (RSBM) of depression and the Reduction of Dominant Behavior Model (RDBM) of mania. Measurements were made at two doses (3 and 30 mg/kg) after oral twice a day (b.i.d.) administration. The effect of the drug in the RSBM was compared to the effect of fluoxetine (10 mg/kg) and vehicle (0.5% methylcellulose). The effect of the drug in the RDBM was compared with the effect of lithium (100 mg/kg) and vehicle (0.5% methylcellulose). The endpoints measured were the development of a significant reduction of submissive or dominant behavior and its time of onset.
(§3) The DSR developed by two rats competing for food uses the apparatus in FIG. 1. The methodology and equipment are described in several publications. (See, Malatynska E, Goldenberg R, Shuck L, Haque A, Zamecki P, Crites G, Schindler N, Knapp R J. Reduction of submissive behavior in rats: a test for antidepressant drug activity. Pharmacology 2002; 64:8; Malatynska E, Rapp R, Crites G. Dominant behavior measured in a competition test as a model of mania. In: International Behavioral Neuroscience Society Meeting, ed. IBNSCapri, Italy, 2002, p 26.; Bonnet U. Moclobemide: therapeutic use and clinical studies. CNS Drug Rev 2003; 9:97; Danysz W, Plaznik A, Kostowski W, Malatynska E, Jarbe T U, Hiltunen A J, Archer T. Comparison of desipramine, amitriptyline, zimeldine and alaproclate in six animal models used to investigate antidepressant drugs. Pharmacol Toxicol 1988; 62:42; Knapp R J, Goldenberg R, Shuck C, Cecil A, Watkins J, Miller C, Crites G, Malatynska E. Antidepressant activity of memory-enhancing drugs in the reduction of submissive behavior model. Eur J Pharmacol 2002; 440:27; Kostowski W, Malatynska E, Plaznik A, Dyr W, Danysz W. Comparative studies on antidepressant action of alprazolam in different animal models. Pol J Pharmacol Pharm 1986; 38, 471; Malatynska E, De Leon I, Allen D, Yamamura Hi. Effects of amitriptyline on GABA-stimulated ^36Cl^− uptake in relation to a behavioral model of depression. Brain Res Bull 1995; 37:53; Malatynska E, Kostowski W. The effect of antidepressant drugs on dominance behavior in rats competing for food. Pol J Pharmacol Pharm 1984; 36:531; Malatynska E, Kostowski W. Desipramine antagonizes clonidine-induced suppression of dominance in rats: possible involvement of amygdaloid nuclei. Pol J Pharmacol Pharm 1988; 40:357).
In the experiments described in this report Sprague-Dawley rats weighing 160 to 180 g were used. Testing for the development of a DSR between paired rats begins with the random assignment of rats into pairs. Rats from pairs are housed separately between test sessions with other animals in groups of four. The animals are food-deprived overnight with free access to water.
The test involves placing each member of a pair in opposite chambers of the testing apparatus. These chambers are connected through a narrow tunnel with a small container of sweetened milk at the center. […]

[1] = test system: isolation-induced aggressive behavior in pairs of mice; assay: Isolation-induced aggression model in pairs of mice; type: in vivo, CrI:CD-1(ICR)BR albino mice
Description: The effects of test compound on the aggressive behavior of CrI:CD-1(ICR)BR albino mice were evaluated using the paradigm of isolation-induced aggression.
Male CrI:CD-1(ICR)BR albino mice, fasted overnight, were individually housed for 5 weeks in plastic cages on wood-chip bedding. Subsequently, they were paired for 1 minute daily for several days by placing one individually housed mouse (intruder) into the resident cage of another individually housed mouse (resident). The 1-minute pairing of intruder and resident mouse elicits aggressive behavior. Pairs of mice showing consistent aggressive behavior when paired for 1 minute, during several days were selected as subjects for drug testing.
Test compound (10 to 40 mg/kg p.o.) or the vehicle (methocel; aqueous 0.5%, w/v, hydroxypropyl methylcellulose solution) was administered (10 mL/kg) to the resident and intruder mouse. One and 4 hours after dosing, the mice were paired and the onset of fighting was recorded. […] The duration of fighting during a 1-minute test period was recorded. Mice were re-used in this procedure after several days to a week to allow metabolism and elimination of test compounds. The mice weighed 32 to 49 g at the time of testing and were fasted overnight before dosing. Mice were euthanized with CO2 if they were sick or injured.
Results were expressed as the median onset of fighting and median duration of fighting in vehicle and drug-treated groups. The statistical significance of an increase in the median onset or a reduction in the median duration of fighting in pairs of mice given test compound or its vehicle 1 and 4 hours after administration was determined using the nonparametric Wilcoxon test (p<0.05, 1-tailed).

dominant rats = assay: Reduction of Dominant Behavior Model (RDBM) of mania, dominant-submissive rat food competition test; type: in vivo, Sprague-Dawley rats
Description: as §1, §2, §3
In the experiments described in this report Sprague-Dawley rats weighing 160 to 180 g were used. […]

[2] = 10 mg/kg p.o., 1 hour after administration
[3] = 10 mg/kg p.o., 4 hours after administration
[4] = 20 mg/kg p.o., 1 hour after administration
[5] = 20 mg/kg p.o., 4 hours after administration
[6] = 30 mg/kg p.o., 1 hour after administration
[7] = 30 mg/kg p.o., 4 hours after administration
[8] = 40 mg/kg p.o., 1 hour after administration
[9] = 40 mg/kg p.o., 4 hours after administration

NC(=O)OC[C@@H](O)c1ccccc1Cl [COMPOUND #7, carisbamate]
effect on submissive rat behavior (submissive rats; 3 mg/kg b.i.d. p.o., 5 weeks, submissive rat treated, partner vehicle): did not have any effect
onset of increased competitiveness of submissive rats (time of treatment) (submissive rats; 30 mg/kg b.i.d. p.o.): 1 week
efficacy in submissive rats compared with fluoxetine (submissive rats; 30 mg/kg b.i.d. p.o. vs fluoxetine 10 mg/kg i.p. once a day): same efficacy as fluoxetine
competitiveness of submissive rat compared to vehicle-treated submissive rats (submissive rats; 30 mg/kg b.i.d. p.o., 5 weeks, submissive rat treated): significantly increased competitiveness
Median Duration of isolation-induced fighting [1, 2]: 28 s
Median Onset of isolation-induced fighting [1, 2]: 5 s
Median Duration of isolation-induced fighting [1, 3]: 6 s
Median Onset of isolation-induced fighting [1, 3]: 4 s
Median Duration of isolation-induced fighting [1, 4]: 20 s
Median Onset of isolation-induced fighting [1, 4]: 11 s
Median Duration of isolation-induced fighting [1, 5]: 26 s
onset of initiation of fighting compared to vehicle-treated group [1, 5]: significantly shortened
Median Duration of isolation-induced fighting [1, 6]: 18 s
Median Onset of isolation-induced fighting [1, 6]: 14 s
Median Duration of isolation-induced fighting [1, 7]: 9.5 s
Median Onset of isolation-induced fighting [1, 7]: 4 s
Median Duration of isolation-induced fighting [1, 8]: 0.5^b sec
Median Onset of isolation-induced fighting [1, 8]: 40 s
isolation-induced aggressive behavior in pairs of mice ([1]; 40 mg/kg p.o., 1 hour after administration, p<0.05): statistically significantly inhibited
Median Duration of isolation-induced fighting [1, 9]: 20 s
Median Onset of isolation-induced fighting [1, 9]: 17 s
median duration of fighting compared to vehicle-treated groups ([1]; any group (10 to 40 mg/kg p.o.), 4 hours after administration): not affected
onset of significant decrease of dominant rat performance (time of treatment) (dominant rats; 3 mg/kg b.i.d. p.o.): 3 weeks
extent and onset of the effect on dominant rats compared with lithium (dominant rats; 3 mg/kg b.i.d. p.o. vs lithium 100 mg/kg i.p.): not significantly different
performance of dominant rats (dominant rats; 3 mg/kg b.i.d. p.o., 5 weeks, dominant rat treated, partner vehicle): decreased the performance
onset of increased competitiveness of dominant rats (time of treatment) (dominant rats; 30 mg/kg b.i.d. p.o.): 2 weeks
competitiveness of dominant rats compared to water treated dominant rats (dominant rats; 30 mg/kg b.i.d. p.o., 5 weeks, dominant rat treated): significantly increased the competitiveness
